According to patent US20170190671A1, “BIS(ARYL)CATECHOL DERIVATIVES AS HERBICIDES” (E I DU PONT DE NEMOURS AND COMPANY, priority 2014, published 2017):

Key:
Test in all cases: Test C postemergence
Format in all cases: in vivo
[1] = system: blackgrass (Alopecurus myosuroides); conditions: Alopecurus myosuroides, post-emergence, 336 h, Postemergence, scale 0 to 100, read-out: Plant response rating, Blackgrass
Summary of the method: (§1)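 Greenhouse test, preemergence on seeded soil or postemergence on 1- to 4-leaf plants. Response is a visual 0-100 rating versus controls, taken 13-15 days after treatment.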

[2] = system: giant foxtail (Setaria faberii); conditions: Setaria faberi, post-emergence, 336 h, Postemergence, scale 0 to 100, read-out: Plant response rating, Foxtail, Giant
Summary of the method: as §1

[3] = system: large (Lg) crabgrass (Digitaria sanguinalis); conditions: Digitaria sanguinalis, post-emergence, 336 h, Postemergence, scale 0 to 100, read-out: Plant response rating, Crabgrass, Large
Summary of the method: as §1

[4] = system: johnsongrass (Sorghum halepense); conditions: Sorghum halepense, post-emergence, 336 h, Postemergence, scale 0 to 100, read-out: Plant response rating, Johnsongrass
Summary of the method: as §1

[5] = system: barnyardgrass (Echinochloa crus-galli); conditions: Echinochloa crus-galli, post-emergence, Postemergence, scale 0 to 100, read-out: Plant response rating, Barnyardgrass
Summary of the method: as §1

corn (Zea mays) = conditions: Zea mays, post-emergence, 336 h, Postemergence, scale 0 to 100
Summary of the method: as §1

[6] = system: velvetleaf (Abutilon theophrasti); conditions: Abutilon theophrasti, post-emergence, Postemergence, scale 0 to 100, read-out: Plant response rating, Velvetleaf
Summary of the method: as §1

[7] = system: lambsquarters (Chenopodium album); conditions: Chenopodium album, post-emergence, 336 h, Postemergence, scale 0 to 100, read-out: Plant response rating, Lambsquarters
Summary of the method: as §1

[8] = system: Italian ryegrass (Lolium multiflorum); conditions: Lolium multiflorum, post-emergence, 336 h, Postemergence, scale 0 to 100, read-out: Plant response rating, Ryegrass, Italian
Summary of the method: as §1

[9] = system: morningglory (Ipomoea coccinea); conditions: Ipomoea, post-emergence, 336 h, Postemergence, scale 0 to 100, read-out: Plant response rating, Morningglory
Summary of the method: as §1

[10] = system: winter wheat (Triticum aestivum); conditions: Triticum aestivum, post-emergence, 336 h, Postemergence, scale 0 to 100, read-out: Plant response rating, Wheat
Summary of the method: as §1

soybean (Glycine max) = conditions: Glycine max, post-emergence, Postemergence, scale 0 to 100, read-out: Plant response rating, Soybean
Summary of the method: as §1

[11] = system: oilseed rape (Brassica napus); conditions: Brassica napus, post-emergence, Postemergence, scale 0 to 100, read-out: Plant response rating, Oilseed Rape
Summary of the method: as §1

[12] = system: ragweed (common ragweed, Ambrosia elatior); conditions: Ambrosia artemisiifolia, post-emergence, 336 h, Postemergence, scale 0 to 100, read-out: Plant response rating, Ragweed
Summary of the method: as §1

## N#Cc1cccc(Oc2ncc(Cl)cn2)c1Oc1cnc(Cl)cn1 [Compound 32, 2-[(5-chloro-2-pyrazinyl)oxy]-3-[(5-chloro-2-pyrimidinyl)oxy]benzonitrile]
[1]; 16 g ai/ha
  pest or weed control at 16 g/ha: 5%
[1]; 31 g ai/ha
  pest or weed control at 31 g/ha: 5%
[1]; 62 g ai/ha
  pest or weed control at 62 g/ha: 5%
[1]; 125 g ai/ha
  pest or weed control at 125 g/ha: 10%
[2]; 16 g ai/ha
  pest or weed control at 16 g/ha: 20%
[2]; 31 g ai/ha
  pest or weed control at 31 g/ha: 20%
[2]; 62 g ai/ha
  pest or weed control at 62 g/ha: 15%
[2]; 125 g ai/ha
  pest or weed control at 125 g/ha: 20%
[3]; 16 g ai/ha
  pest or weed control at 16 g/ha: 5%
[3]; 31 g ai/ha
  pest or weed control at 31 g/ha: 10%
[3]; 62 g ai/ha
  pest or weed control at 62 g/ha: 20%
[3]; 125 g ai/ha
  pest or weed control at 125 g/ha: 30%
[4]; 16 g ai/ha
  pest or weed control at 16 g/ha: 10%
[4]; 31 g ai/ha
  pest or weed control at 31 g/ha: 10%
[4]; 62 g ai/ha
  pest or weed control at 62 g/ha: 10%
[4]; 125 g ai/ha
  pest or weed control at 125 g/ha: 40%
[5]; 16 g ai/ha
  pest or weed control at 16 g/ha: 10%
[5]; 31 g ai/ha
  pest or weed control at 31 g/ha: 20%
[5]; 62 g ai/ha
  pest or weed control at 62 g/ha: 20%
[5]; 125 g ai/ha
  pest or weed control at 125 g/ha: 30%
Corn (Zea mays); 16 g ai/ha
  Corn plant response rating (crop injury, 0 = no effect, 100 = complete kill) at 16 g/ha: 20%
Corn (Zea mays); 31 g ai/ha
  Corn plant response rating (crop injury, 0 = no effect, 100 = complete kill) at 31 g/ha: 20%
Corn (Zea mays); 62 g ai/ha
  Corn plant response rating (crop injury, 0 = no effect, 100 = complete kill) at 62 g/ha: 25%
Corn (Zea mays); 125 g ai/ha
  Corn plant response rating (crop injury, 0 = no effect, 100 = complete kill) at 125 g/ha: 25%
[6]; 31 g ai/ha
  pest or weed control at 31 g/ha: 55%
[6]; 62 g ai/ha
  pest or weed control at 62 g/ha: 60%
[6]; 125 g ai/ha
  pest or weed control at 125 g/ha: 75%
[7]; 16 g ai/ha
  pest or weed control at 16 g/ha: 80%
[7]; 31 g ai/ha
  pest or weed control at 31 g/ha: 90%
[7]; 62 g ai/ha
  pest or weed control at 62 g/ha: 85%
[7]; 125 g ai/ha
  pest or weed control at 125 g/ha: 90%
[8]; 31 g ai/ha
  pest or weed control at 31 g/ha: 5%
[8]; 62 g ai/ha
  pest or weed control at 62 g/ha: 10%
[8]; 125 g ai/ha
  pest or weed control at 125 g/ha: 30%
[9]; 31 g ai/ha
  pest or weed control at 31 g/ha: 90%
[9]; 62 g ai/ha
  pest or weed control at 62 g/ha: 95%
[9]; 125 g ai/ha
  pest or weed control at 125 g/ha: 95%
[10]; 31 g ai/ha
  plant injury at 31 g/ha: 0%
[10]; 62 g ai/ha
  plant injury at 62 g/ha: 0%
[10]; 125 g ai/ha
  plant injury at 125 g/ha: 0%
Soybean (Glycine max); 31 g ai/ha
  plant injury at 31 g/ha: 65%
Soybean (Glycine max); 62 g ai/ha
  plant injury at 62 g/ha: 85%
Soybean (Glycine max); 125 g ai/ha
  plant injury at 125 g/ha: 85%
[11]; 31 g ai/ha
  plant injury at 31 g/ha: 80%
[11]; 62 g ai/ha
  plant injury at 62 g/ha: 85%
[11]; 125 g ai/ha
  plant injury at 125 g/ha: 85%
[12]; 31 g ai/ha
  pest or weed control at 31 g/ha: 55%
[12]; 62 g ai/ha
  pest or weed control at 62 g/ha: 80%
[12]; 125 g ai/ha
  pest or weed control at 125 g/ha: 80%
